{
  "source": "patent US9616107B2",
  "about": "“Therapy for kidney disease and/or heart failure” (priority 2011, dated 2017)",
  "experiment": "Toxicology study of VD in canines: 5-day continuous subcutaneous infusion, plasma VD by radioimmunoassay, clinical observations",
  "assay_type": "in vivo",
  "conditions": "for half-life / AUC(0-t) / AUC / Tmax / Cmax / t1/2: beagle; for AUC(0-t): data through 122 hours; for average steady state peak concentrations: n=1 per sex",
  "experimental": "VD was administered to canines via a subcutaneous delivery route. The dosing was performed at a high level to assess the toxicity of VD and to determine if a lethal dosing amount of the VD can be reached by subcutaneous administration.\nVD was administered subcutaneously to canines using a Medtronic Paradigm® infusion pump (model MMT772) over a period of 5 days. VD was obtained as an acetate salt (VD-acetate) from Bachem (lot 2502022) and prepared in Tris/Glycerin/m-cresol buffer at a concentration of 15 mg/mL. The Tris/Glycerin/m-cresol buffer was prepared by mixing 16.0 g glycerol, 6.05 g tris-(hydroxymethyl)-aminomethane (“Tris”), 2.50 g meta cresol in a 1.00 L volumetric flask. Approximately 900 mL nanopure water was added to the volumetric flask and the mixture was magnetically stirred to reach complete dissolution. 4 normal hydrochloric acid was used to adjust pH to […] at 25° C.\nVD was administered to one male and one female beagle canine at varying dosing amounts. Each canine received a first dosage level for 5 consecutive days followed by a 2-day washout period. Then, the same canines received a second, higher dosage level for an additional 5 consecutive days.\nPrior to the beginning of dosing with VD (Day 0), the canines were placed in a sling and the dose site on the dorsolateral thorax was shaved. The shaved area was swabbed with 70% isopropyl alcohol and allowed to dry. DuraPrep™ (3M) was then applied and allowed to dry for 3 minutes. The catheter of the infusion set (Medtronic Silhouette Paradigm® Infusion Set MMT-378) was placed subcutaneously and perpendicular to the spine, and attached to the skin. The extension set was then attached to a previously weighed reservoir filled with VD at a concentration of 15 mg/mL in the Tris/Glycerin/m-cresol buffer. The reservoir was inserted into the pump located in a jacket pocket and dosing was commenced. The jacket was then secured and a collar was placed on each canine. Every day during the 5-day period, the reservoirs were exchanged with new filled reservoirs at approximately the same time each day.\nAt the end of the first 5-day dosing period, the infusion sets and jackets were removed, the area where the catheter was placed was marked, and the animals were allowed a 2-day washout period prior to the next treatment. For the next treatment at the second dosing amount, a new infusion site was chosen on the skin, and the pump was prepared as before.\nThe daily dosage level during the first 5-day period (Group 1) was 1.44 mg/(kg·day) (or 1000 ng/(kg·min)) for each canine corresponding with a dosage volume of 0.096 ml/(kg·day). The total dose delivered to each canine over the first 5-day period was 7.20 mg/kg. […] Following the 2-day washout period, the daily dosage level was increased to 2.88 mg/(kg·day) (or 2000 ng/(kg·min)) for each canine corresponding with a dosage volume of 0.192 ml/(kg·day) during the second 5-day period (Group 2). The total dose delivered to each canine over the second 5-day period was 14.4 mg/kg.\nAll animals were observed twice daily during the first and second 5-day periods for mortality and moribund appearance. Clinical examinations were also performed daily for the animals after dosing began. Detailed physical examinations were conducted on Day 0 prior to dosing and on study Day 5 after the pumps and jackets were removed from the canines. Individual body weights were recorded twice weekly during a 7-day pretest period, on study Day 0 prior to dosing and study Day 5 after the pumps and jackets were removed from the canines. Body weights and body weight changes were calculated for the corresponding intervals. Individual food consumption was recorded daily during the pretest period and throughout the study.\nBlood samples for determination of plasma drug concentration were collected at 2, 4, 24 and 96 hours after the beginning of infusion, immediately prior to the end of infusion on Day 5, and 0.5, 1, 1.5, and 2 hours after the end of dosing. […]",
  "note": "Entries after “also recorded” stand apart in the source; their conditions may differ. Like-named read-outs stand apart in the source and are kept apart here. Marks after values point to notes of the source that are not given here. Ends that are not written are not given here.",
  "data": [
    {"sequence": "EVVPPQVLSEPNEEAGAALSPLPEVPPWTGEVSPAQR [VD, Vessel Dilator]", "values": [
      {"measurement": "half-life", "setting": "dog, in vivo, t1/2", "result": 0.735, "unit": "h"},
      {"measurement": "AUC(0-t)", "setting": "dog, in vivo, female canine, 1.44 mg/kg/day (7.20 mg/kg), SC infusion 5 days", "result": 34700, "unit": "ng·h/mL"},
      {"measurement": "AUC", "setting": "dog, in vivo, female canine, 1.44 mg/kg/day (7.20 mg/kg), SC infusion 5 days, τ 120 hours, read-out: AUCτ (AUGτ [sic])", "result": 34400, "unit": "ng·h/mL"},
      {"measurement": "Tmax", "setting": "dog, in vivo, female canine, 1.44 mg/kg/day (7.20 mg/kg), SC infusion 5 days, hours after start of infusion, read-out: Tmax", "result": 96, "unit": "h"},
      {"measurement": "AUC", "setting": "dog, in vivo, female canine, 2.88 mg/(kg·day), maximum tolerated dose not determined, read-out: AUC that a maximum tolerated dose would exceed", "result": "> 63300", "unit": "ng·h/mL"},
      {"measurement": "Cmax", "setting": "dog, in vivo, female canine, 2.88 mg/(kg·day), maximum tolerated dose not determined, read-out: Cmax that a maximum tolerated dose would exceed", "result": "> 579", "unit": "ng/mL"},
      {"measurement": "AUC(0-t)", "setting": "dog, in vivo, female canine, 2.88 mg/kg/day (14.4 mg/kg), SC infusion 5 days", "result": 64100, "unit": "ng·h/mL"},
      {"measurement": "AUC", "setting": "dog, in vivo, female canine, 2.88 mg/kg/day (14.4 mg/kg), SC infusion 5 days, τ 120 hours, read-out: AUCτ (AUGτ [sic])", "result": 63300, "unit": "ng·h/mL"},
      {"measurement": "Tmax", "setting": "dog, in vivo, female canine, 2.88 mg/kg/day (14.4 mg/kg), SC infusion 5 days, hours after start of infusion, read-out: Tmax", "result": 96, "unit": "h"},
      {"measurement": "Cmax", "setting": "dog, in vivo, female canine, 2.88 mg/kg/day (14.4 mg/kg), SC infusion 5 days, read-out: Cmax", "result": 579, "unit": "ng/mL"},
      {"measurement": "Tmax", "setting": "dog, in vivo, female canine, both dosages, after start of infusion, read-out: Tmax", "result": "~96", "unit": "h"},
      {"measurement": "AUC(0-t)", "setting": "dog, in vivo, male canine, 1.44 mg/kg/day (7.20 mg/kg), SC infusion 5 days", "result": 31200, "unit": "ng·h/mL"},
      {"measurement": "AUC", "setting": "dog, in vivo, male canine, 1.44 mg/kg/day (7.20 mg/kg), SC infusion 5 days, τ 120 hours, read-out: AUCτ (AUGτ [sic])", "result": 30800, "unit": "ng·h/mL"},
      {"measurement": "AUC", "setting": "dog, in vivo, male canine, 2.88 mg/(kg·day), maximum tolerated dose not determined, read-out: AUC that a maximum tolerated dose would exceed", "result": "> 58200", "unit": "ng·h/mL"},
      {"measurement": "Cmax", "setting": "dog, in vivo, male canine, 2.88 mg/(kg·day), maximum tolerated dose not determined, read-out: Cmax that a maximum tolerated dose would exceed", "result": "> 655", "unit": "ng/mL"},
      {"measurement": "AUC(0-t)", "setting": "dog, in vivo, male canine, 2.88 mg/kg/day (14.4 mg/kg), SC infusion 5 days", "result": 58900, "unit": "ng·h/mL"},
      {"measurement": "AUC", "setting": "dog, in vivo, male canine, 2.88 mg/kg/day (14.4 mg/kg), SC infusion 5 days, τ 120 hours, read-out: AUCτ (AUGτ [sic])", "result": 58200, "unit": "ng·h/mL"},
      {"measurement": "survival and adverse effects on weight, food consumption or behavior", "setting": "both canines, 1.44 then 2.88 mg/(kg·day), 5 days each", "result": "survived to the scheduled study termination without appreciable adverse effects on weight, food consumption or behavior"},
      {"measurement": "half-life", "setting": "both sexes, dog, in vivo, calculated half-life for elimination of Vessel Dilator in plasma", "result": "0.7 to 1.2", "unit": "h"},
      {"measurement": "Tmax", "setting": "both sexes, dog, in vivo, sc", "result": 108, "unit": "h"},
      {"measurement": "average steady state peak concentrations", "setting": "canines, 1000 ng/kg·min constant SC dosing 5 days", "result": "257 to 287", "unit": "ng/mL"},
      {"measurement": "average steady state peak concentrations", "setting": "canines, 2000 ng/kg·min constant SC dosing 5 days", "result": "485 to 527", "unit": "ng/mL"},
      {"measurement": "tolerance and toxicological effects of continuous subcutaneous infusion", "setting": "canines, up to 2.88 mg/(kg·day)", "result": "high tolerance and no noticeable toxicological effects; also recorded: well-tolerated"},
      {"measurement": "maximum tolerated dose for prolonged subcutaneous administration", "setting": "canines, expected", "result": "> 2000", "unit": "ng/kg·min"},
      {"measurement": "effects on body weight", "setting": "dog, in vivo", "result": "no effects on body weight"},
      {"measurement": "effects related to food consumption", "setting": "dog, in vivo", "result": "no effects related to food consumption"},
      {"measurement": "fluctuation of plasma concentrations of VD", "setting": "dog, in vivo", "result": "approximately 30%"},
      {"measurement": "potential VD administration-related clinical observations", "setting": "dog, in vivo", "result": "reddened ears and/or reddened gums"},
      {"measurement": "systemic exposure to VD (AUCτ and Cmax) versus dosage", "setting": "dog, in vivo, 2.88 mg/kg/day", "result": "increased proportionally with the increase in dosage"},
      {"measurement": "plasma concentration up to which no toxicity issues were shown", "setting": "dogs, continuous five day subcutaneous infusion", "result": "~500", "unit": "ng/mL"},
      {"measurement": "t1/2", "setting": "female, dog, in vivo, sc", "result": "1.21† h"},
      {"measurement": "half-life", "setting": "female, dog, in vivo, sc, t1/2", "result": 0.801, "unit": "h"},
      {"measurement": "Tmax", "setting": "male, dog, in vivo", "result": 120, "unit": "h"},
      {"measurement": "Tmax", "setting": "male, dog, in vivo, sc", "result": 120, "unit": "h"},
      {"measurement": "t1/2", "setting": "male, dog, in vivo, sc", "result": "0.793† h"},
      {"measurement": "half-life", "setting": "male, dog, in vivo, sc, t1/2", "result": 0.735, "unit": "h"}
    ]}
  ]
}
